Test results published in patent US10940139B2, “Compounds that interact with the Ras superfamily for the treatment of cancers, inflammatory diseases, rasopathies, and fibrotic disease” (Shy Therapeutics LLC, priority 2017, dated 2021).

Tests used:
[1] = molecular target: Rac-1 (Homo sapiens (Human), UniProt P63000); test: Rac inhibition assay (labeled GTP); assay type: binding; conditions: read-out: Rac-1 % Inh.
[2] = molecular target: KRas G12D mutant protein (Homo sapiens (Human), UniProt P01116, G12D); test: Ras GTP binding domain inhibition assay (labeled GTP); conditions: at 20 μM; read-out: KRas G12D % Inh.
Chain of KRas G12D mutant protein (P01116-2 other isoform, or with tags, fused parts or gaps G12D): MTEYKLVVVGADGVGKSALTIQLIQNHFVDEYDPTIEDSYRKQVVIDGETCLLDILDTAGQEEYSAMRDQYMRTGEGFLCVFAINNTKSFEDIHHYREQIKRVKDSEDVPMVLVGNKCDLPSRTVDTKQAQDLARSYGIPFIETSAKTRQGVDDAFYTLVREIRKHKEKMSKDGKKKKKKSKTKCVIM
Method: The following method was developed as specific assay for KRas G12D mutant protein.
Buffer-I: • 50 mM Tris, pH 7.5 • 150 mM NaCl (optional) • 1 mM MgCl2 • 1 mM DTT. • KRas G12D mutant protein was expressed as a His-tagged protein. Purified His-KRas G12D protein was diluted in buffer-I to a final concentration of 3-10 μg/ml. • 200 μl of the diluted His-KRas G12D protein was added to a nickel coated 96 well plate and incubated overnight at 4° C. • The next day, wells were washed 3× in 200 μl of Buffer-I. • Then 200 μl of Buffer-I were added to each well in the presence of 1% DMSO. • Tested compounds were added to the protein-coated wells at a concentration of 20 μM, and incubated for 3 hours at room temperature. While performing IC50 measurements a serial dilution of all tested concentrations was prepared.
Then 22 μl of Cy3-GTP or Cy5-GTP was added to each well. The labeled GTP was incubated for 45 min. at room temperature. • Following GTP incubation, wells were washed 3× in Buffer-I, and 200 μl of Buffer-I were added to each well. • Following washes, the amount of bound labeled-GTP was measured with an Eppendorf AF2200 plate reader.

[3] = molecular target: Rho-A (Homo sapiens (Human), UniProt P61586); test: Rho inhibition assay (labeled GTP); assay type: binding; conditions: read-out: Rho-A % Inh.
Chain of Rho-A (P61586 whole entry): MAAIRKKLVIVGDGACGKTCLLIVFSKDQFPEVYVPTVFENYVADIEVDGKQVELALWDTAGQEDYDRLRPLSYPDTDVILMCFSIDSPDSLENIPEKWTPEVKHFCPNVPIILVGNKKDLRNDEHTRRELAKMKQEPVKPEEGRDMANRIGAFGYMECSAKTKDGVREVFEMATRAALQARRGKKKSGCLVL

`CC(O)CNc1nc(-c2nccn2C)nc2sc(-c3ccccc3)c(-c3ccccc3)c12` (stereo not drawn) [drawing 3887] was tested, and the inhibition at 20 µM [1] was 25 to 50%, the inhibition at 20 µM [2] was 1 to 25% and the inhibition at 20 µM [3] was 25 to 50%.

`COCCCNc1nc(-c2nccn2C)nc2sc(-c3ccccc3)c(-c3ccccc3)c12` [drawing 3888] gave an inhibition at 20 µM [1] of 25 to 50%, an inhibition at 20 µM [2] of 51 to 75% and an inhibition at 20 µM [3] of 51 to 75%.

`COC1CCN(c2nc(-c3nccn3C)nc3sc(-c4ccccc4)c(-c4ccccc4)c23)C1` (stereo not drawn) [drawing 3889] gave an inhibition at 20 µM [1] of 25 to 50%, an inhibition at 20 µM [2] of 51 to 75% and an inhibition at 20 µM [3] of 0%.

Work on `CCOCCOc1nc(-c2nccn2C)nc2sc(-c3ccccc3)c(-c3ccccc3)c12` [drawing 3890] yielded an inhibition at 20 µM [1] of 1 to 25%, an inhibition at 20 µM [2] of 1 to 25% and an inhibition at 20 µM [3] of 25 to 50%.

`CCN(CC)CCOc1nc(-c2nccn2C)nc2sc(-c3ccccc3)c(-c3ccccc3)c12` [drawing 3891] showed an inhibition at 20 µM [1] of 1 to 25%, an inhibition at 20 µM [2] of 25 to 50% and an inhibition at 20 µM [3] of 1 to 25%.

Compound `COCCNc1nc(-c2ccncn2)nc2sc(-c3ccccc3)c(-c3ccccc3)c12` [drawing 3892] has an inhibition at 20 µM [1] of 1 to 25%, an inhibition at 20 µM [2] of 0% and an inhibition at 20 µM [3] of 1 to 25%.

In the case of `CCOCCNc1nc(-c2nccn2C)nc2sc(-c3ccccc3)c(-c3ccccc3)c12` [drawing 3893], the inhibition at 20 µM [1] is reported as 51 to 75%, the inhibition at 20 µM [2] is reported as 51 to 75% and the inhibition at 20 µM [3] is reported as 51 to 75%.

For `Cn1ccnc1-c1nc(NCCOC2CC2)c2c(-c3ccccc3)c(-c3ccccc3)sc2n1` [drawing 3894], the inhibition at 20 µM [1] was 25 to 50%, the inhibition at 20 µM [2] was 1 to 25% and the inhibition at 20 µM [3] was 1 to 25%.

Work on `COCC(C)Nc1nc(-c2nccn2C)nc2sc(-c3ccccc3)c(-c3ccccc3)c12` (stereo not drawn) [drawing 3895] yielded an inhibition at 20 µM [1] of 1 to 25%, an inhibition at 20 µM [2] of 1 to 25% and an inhibition at 20 µM [3] of 1 to 25%.

`CC(CO)Nc1nc(-c2nccn2C)nc2sc(-c3ccccc3)c(-c3ccccc3)c12` (stereo not drawn) [drawing 3896] showed an inhibition at 20 µM [1] of 1 to 25%, an inhibition at 20 µM [2] of 1 to 25% and an inhibition at 20 µM [3] of 1 to 25%.

With `Cn1ccnc1-c1nc(NCCCO)c2c(-c3ccccc3)c(-c3ccccc3)sc2n1` [drawing 3897] the inhibition at 20 µM [1] was 51 to 75%, the inhibition at 20 µM [2] was 51 to 75% and the inhibition at 20 µM [3] was 51 to 75%.

Compound `COCCNc1nc(-c2nccn2C)nc2sc(-c3ccccc3)c(-c3ccccc3Cl)c12` [drawing 3898] has an inhibition at 20 µM [1] of 25 to 50%, an inhibition at 20 µM [2] of 25 to 50% and an inhibition at 20 µM [3] of 25 to 50%.

With `COCCNc1nc(-c2nccn2C)nc2sc(-c3ccccc3Cl)c(-c3ccccc3)c12` [drawing 3899] the inhibition at 20 µM [1] was 0%, the inhibition at 20 µM [2] was 1 to 25% and the inhibition at 20 µM [3] was 25 to 50%.

Work on `COCCNc1nc(-c2nccn2C)nc2sc(-c3ccncc3)c(-c3ccccc3)c12` [drawing 3900] yielded an inhibition at 20 µM [1] of 51 to 75%, an inhibition at 20 µM [2] of 51 to 75% and an inhibition at 20 µM [3] of 51 to 75%.

For `COCCNc1nc(-c2cn(C)cn2)nc2sc(-c3ccccc3)c(-c3ccccc3)c12` [drawing 3901], the inhibition at 20 µM [1] was 51 to 75%, the inhibition at 20 µM [2] was 25 to 50% and the inhibition at 20 µM [3] was 51 to 75%.

`COCCNc1nc(-c2nccn2C)nc2sc(C)c(-c3ccccc3)c12` [drawing 3902] gave an inhibition at 20 µM [1] of 51 to 75%, an inhibition at 20 µM [2] of 51 to 75% and an inhibition at 20 µM [3] of 51 to 75%.

Compound `COCCNc1nc(-c2cn(C)cn2)nc2sc(C)c(-c3ccccc3)c12` [drawing 3903] has an inhibition at 20 µM [1] of 51 to 75%, an inhibition at 20 µM [2] of 25 to 50% and an inhibition at 20 µM [3] of 51 to 75%.

`COCCNc1nc(-c2nccn2C)nc2sc(-c3cccc(OC)c3)c(-c3ccccc3)c12` [drawing 3904] gave an inhibition at 20 µM [1] of 1 to 25%, an inhibition at 20 µM [2] of 25 to 50% and an inhibition at 20 µM [3] of 51 to 75%.

`CC(C)COc1ccc(-c2c(-c3ccccc3)sc3c(O)nc(-c4nccn4C)nc23)cn1` [drawing 3905] was tested, and the inhibition at 20 µM [1] was 51 to 75%, the inhibition at 20 µM [2] was 51 to 75% and the inhibition at 20 µM [3] was 51 to 75%.

`Cn1ccnc1-c1nc(O)c2sc(-c3ccccc3)c(-c3ccccc3)c2n1` [drawing 3906] showed an inhibition at 20 µM [1] of 0%, an inhibition at 20 µM [2] of 0% and an inhibition at 20 µM [3] of 1 to 25%.

With `COCCNc1nc(-c2nccn2C)nc2sc(-c3ccccc3)c(-c3ccc(OC)cc3)c12` [drawing 3907] the inhibition at 20 µM [1] was 51 to 75%, the inhibition at 20 µM [2] was 25 to 50% and the inhibition at 20 µM [3] was 51 to 75%.

In the case of `COCCNc1nc(-c2nccn2C)nc2sc(C3CCOCC3)c(-c3ccccc3)c12` [drawing 3908], the inhibition at 20 µM [1] is reported as 76 to 100%, the inhibition at 20 µM [2] is reported as 51 to 75% and the inhibition at 20 µM [3] is reported as 51 to 75%.

Work on `COCCNc1nc(-c2cccc(N)n2)nc2sc(-c3ccccc3)c(-c3ccccc3)c12` [drawing 3909] yielded an inhibition at 20 µM [1] of 0%, an inhibition at 20 µM [2] of 0% and an inhibition at 20 µM [3] of 0%.

In the case of `Cn1ccnc1-c1nc(O)c2sc(-c3ccccc3)c(-c3cccc(C(F)(F)F)c3)c2n1` [drawing 3910], the inhibition at 20 µM [1] is reported as 1 to 25%, the inhibition at 20 µM [2] is reported as 0% and the inhibition at 20 µM [3] is reported as 0%.

In the case of `COc1ccc(-c2c(-c3ccccc3)sc3c(O)nc(-c4nccn4C)nc23)cn1` [drawing 3911], the inhibition at 20 µM [1] is reported as 1 to 25%, the inhibition at 20 µM [2] is reported as 1 to 25% and the inhibition at 20 µM [3] is reported as 1 to 25%.

`Cc1sc2c(O)nc(-c3nccn3C)nc2c1-c1ccccc1` [drawing 3912] was tested, and the inhibition at 20 µM [1] was 25 to 50%, the inhibition at 20 µM [2] was 25 to 50% and the inhibition at 20 µM [3] was 51 to 75%.

In the case of `Cn1ccnc1-c1nc(O)c2sc(-c3ccccc3)c(-c3ccccc3Cl)c2n1` [drawing 3913], the inhibition at 20 µM [1] is reported as 51 to 75%, the inhibition at 20 µM [2] is reported as 51 to 75% and the inhibition at 20 µM [3] is reported as 51 to 75%.

With `COCCNc1nc(-c2nccn2C)nc2sc(-c3ccccc3)c(-c3ccncc3)c12` [drawing 3914] the inhibition at 20 µM [1] was 76 to 100%, the inhibition at 20 µM [2] was 51 to 75% and the inhibition at 20 µM [3] was 76 to 100%.

In the case of `COCCNc1nc(-c2nccn2C)nc2sc(-c3ccc(OC)cc3)c(-c3ccccc3)c12` [drawing 3915], the inhibition at 20 µM [1] is reported as 25 to 50%, the inhibition at 20 µM [2] is reported as 25 to 50% and the inhibition at 20 µM [3] is reported as 1 to 25%.

In the case of `Cn1ccnc1-c1nc(O)c2scc(-c3cccc(C(F)(F)F)c3)c2n1` [drawing 3916], the inhibition at 20 µM [1] is reported as 51 to 75%, the inhibition at 20 µM [2] is reported as 25 to 50% and the inhibition at 20 µM [3] is reported as 25 to 50%.

`Cc1sc2c(O)nc(-c3nccn3C)nc2c1-c1cccc(C(F)(F)F)c1` [drawing 3917] gave an inhibition at 20 µM [1] of 25 to 50%, an inhibition at 20 µM [2] of 1 to 25% and an inhibition at 20 µM [3] of 0%.

Work on `Cc1sc2c(O)nc(-c3nccn3C)nc2c1-c1ccc(OCC(C)C)nc1` [drawing 3918] yielded an inhibition at 20 µM [1] of 25 to 50%, an inhibition at 20 µM [2] of 1 to 25% and an inhibition at 20 µM [3] of 1 to 25%.

Work on `COc1ccc(-c2c(C)sc3c(O)nc(-c4nccn4C)nc23)cn1` [drawing 3919] yielded an inhibition at 20 µM [1] of 1 to 25%, an inhibition at 20 µM [2] of 1 to 25% and an inhibition at 20 µM [3] of 0%.

`Cc1sc2c(O)nc(-c3nccn3C)nc2c1-c1ccccc1Cl` [drawing 3920] showed an inhibition at 20 µM [1] of 51 to 75%, an inhibition at 20 µM [2] of 25 to 50% and an inhibition at 20 µM [3] of 51 to 75%.

Compound `Cn1ccnc1-c1nc(O)c2scc(-c3cccc(OC(F)(F)F)c3)c2n1` [drawing 3921] has an inhibition at 20 µM [1] of 51 to 75%, an inhibition at 20 µM [2] of 51 to 75% and an inhibition at 20 µM [3] of 25 to 50%.

With `Cn1cnc(-c2nc(O)c3scc(-c4cccc(C(F)(F)F)c4)c3n2)c1` [drawing 3922] the inhibition at 20 µM [1] was 25 to 50%, the inhibition at 20 µM [2] was 25 to 50% and the inhibition at 20 µM [3] was 25 to 50%.

`CC(C)COc1ccc(-c2csc3c(O)nc(-c4cn(C)cn4)nc23)cn1` [drawing 3923] was tested, and the inhibition at 20 µM [1] was 25 to 50%, the inhibition at 20 µM [2] was 1 to 25% and the inhibition at 20 µM [3] was 25 to 50%.

`Cn1cnc(-c2nc(O)c3scc(-c4cccc(OC(F)(F)F)c4)c3n2)c1` [drawing 3924] was tested, and the inhibition at 20 µM [1] was 25 to 50%, the inhibition at 20 µM [2] was 25 to 50% and the inhibition at 20 µM [3] was 25 to 50%.
